In patent publication US20160089343A1 (LSU Health Sciences Center Shreveport, priority 2014, published 2016):
Entries after “also recorded” stand apart in the source; their conditions may differ.

Columns and labels:
tumor formation = assay: Model of minimal residual disease; assay type: in vivo
mTOR pathway markers = assay: Phase 2 biomarker exploratory trial in HNSCC patients; assay type: in vivo, human
From the text: Criteria #1) Biomarker expression in normal tissue should be different from that in high risk tissue. In FIG. 2 we present an analysis of cancer (lanes 5, 6, 11, and 12) and non-cancer (patients with sleep apnea) (lanes 1-4 and 7-10) patient samples. The cancer samples include tumors (T) and histologically tumor-free margins (M). […] Criteria #2) Biomarkers can be detected in small tissue specimens. In our studies we have successfully detected by western blots and even by IHC the various Akt/mTOR markers on samples often as small as 5 mm. Criteria #3) Biomarkers can be expressed in a quantity or pattern that can be correlated with the stage of carcinogenesis.

HNSCC cell lines = HNSCC cell lines screened for sensitivity to curcumin (cell proliferation); assay type: cell-based; conditions: for sensitivity of a variety of cell lines: spread of sensitivity across cell lines
[1] = system: Akt/mTOR pathway in SCC066 cells; assay: Modulation of NFκB and Akt/mTOR pathways, SCC066 cells; assay type: cell-based; conditions: SCC066, 10 μM curcumin, 24 and 48 hours
[2] = system: prostate cancer xenograft; conditions: p.o. gavage 5 mg/day, 5 days/week for 4 weeks; cited from earlier work
[3] = system: NFκB and Akt/mTOR pathways in SCC40 cells; assay: Modulation of NFκB and Akt/mTOR pathways, SCC40 cells; assay type: cell-based; conditions: SCC40, 10 μM curcumin
[4] = system: pAkt and pS6 in SCC40 xenografts; assay: pAkt and pS6 in SCC40 xenografts of curcumin-treated mice; assay type: in vivo; conditions: mice with SCC40 xenografts treated with curcumin
[5] = system: normal fibroblast cell line CCL110; assay: Cell proliferation in the normal fibroblast cell line; assay type: cell-based; conditions: CCL110, in vitro
[6] = system: NFκB and Akt/mTOR pathways in PCI15a cells; assay: Modulation of NFκB and Akt/mTOR pathways, PCI15a cells; assay type: cell-based; conditions: 10 μM curcumin
DMBA-induced oral tumors = conditions: topical 10 μmol curcumin to cheek pouch 3 times/week for 24 weeks; cited from earlier work
tumor cells = assay: Chemoprevention model: pre-treatment before injecting tumor cells, tumor volume; assay type: in vivo, Balb/c nu/nu mice; conditions: from 4 days before tumor cells, about three weeks
Procedure: Balb/c nu/nu mice were randomized into treatment groups. […] Tumors were measured over approximately three weeks. […] ANOVA analysis. […] This also points to its role as a chemopreventive agent rather than a therapeutic agent.

[7] = system: TPA-induced tumors on mouse skin; conditions: topical 10 μmol curcumin twice weekly; cited from earlier work
[8] = system: pNFκB or Akt/mTOR in CCL110 cells; assay: Modulation of NFκB and Akt/mTOR pathways, CCL110 normal fibroblasts; assay type: cell-based; conditions: CCL110, 10 μM curcumin, 24 and 48 hours
[9] = system: AKT/mTOR pathway, FGF-2 and MMP-9 in HNSCC cell lines; assay: Biomarkers in HNSCC cell lines (earlier work); assay type: cell-based
From the text: Also, identifying a consistent biomarker that can be validated in chemoprevention trials is critical, as the occurrence of cancer as an end point could take years. […] Acquiring the angiogenic phenotype by premalignant cells is the a critical step in carcinogenesis and FGF-2 is one of the most important angiogenic markers. Oral dysplasias are characterized by deregulations (DNA amplification and homozygous deletion) of multiple components of the FGF signaling network. […] GM-CSF promotes proliferation of endothelial progenitor cells, induces endothelial capillary formation via stimulation of MMP expression and activates JAK2/STAT-3 pathway. IL-17, besides its function as immune marker, is also implicated in stimulating angiogenesis.

With `CO[C@H]1C[C@@H]2CC[C@@H](C)[C@@](O)(O2)C(=O)C(=O)N2CCCC[C@H]2C(=O)O[C@H]([C@H](C)C[C@@H]2CC[C@@H](OC(=O)C(C)(CO)CO)[C@H](OC)C2)CC(=O)[C@H](C)/C=C(\C)[C@@H](O)[C@@H](OC)C(=O)[C@H](C)C[C@H](C)/C=C/C=C/C=C/1C` [CCI-779, temsirolimus] the survival (tumor formation) was “improve survival”, the tumor formation (tumor formation) was “inhibit tumor formation” and the “mTOR pathway markers in tumors and PBMCs” value (mTOR pathway markers) was “modulation of these markers”.
With `CO[C@H]1C[C@@H]2CC[C@@H](C)[C@@](O)(O2)C(=O)C(=O)N2CCCC[C@H]2C(=O)O[C@H]([C@H](C)C[C@@H]2CC[C@@H](OCCO)[C@H](OC)C2)CC(=O)[C@H](C)/C=C(\C)[C@@H](O)[C@@H](OC)C(=O)[C@H](C)C[C@H](C)/C=C/C=C/C=C/1C` [RAD001, everolimus] the “sensitivity of a variety of cell lines” value (HNSCC cell lines) was “wide range of sensitivity”.
In the case of `COc1cc(/C=C/C(=O)CC(=O)/C=C/c2ccc(O)c(OC)c2)ccc1O` [curcumin], the Akt/mTOR pathway [1] is given as “did not show any modulation”, the “inhibition of growth of prostate cancer xenograft” value [2] is given as roughly 50% and the growth inhibitory effect (HNSCC cell lines; all 10 HNSCC cell lines tested to date) is given as “growth inhibitory effects”. The “effect on cell proliferation” value (HNSCC cell lines; all HNSCC cell lines, 10 μM curcumin) was “inhibition of cell proliferation”, the anti-proliferative effect (HNSCC cell lines; panel of nine HNSCC cell lines, earlier work) was “robust anti-proliferative effects” and the “sensitivity of a variety of cell lines” value (HNSCC cell lines) was “consistently sensitive”. For the same compound, the growth inhibitory effect (HNSCC cell lines; three HNSCC cell lines (PCI15a, SCC40, SCC066), 10 μM, 48 hours) was “significant growth inhibitory effects”, the “curcumin concentration giving consistent inhibition of cell proliferation” value (HNSCC cell lines; variety of HNSCC cell lines, in vitro) was “less than 10 μM” and the Akt/mTOR pathway ([3]; 24 and 48 hours) was “no change”. The pNFκB ([3]; 48 hours) was “down-regulation”, the pAkt in xenografts [4] was “significant decrease” and the pS6 in xenografts [4] was “significant decrease”. For the same compound, the “dose required to see effects in normal fibroblasts” value [5] was 20 to 40 µM, the pNFκB ([6]; 24 and 48 hours) was “no change” and the pAkt ([6]; 48 hours) was “down-regulated”. For the same compound, the “pS6 downstream of mTOR” value ([6]; 48 hours) was “down-regulated”, the “reduction of the number of DMBA-induced oral tumors” value (DMBA-induced oral tumors) was roughly 40% and the “tumor volume versus control (vehicle treated)” value (tumor cells; 10 mg curcumin) was “no significant difference”. For the same compound, the “tumor volume versus control (vehicle treated)” value (tumor cells; 15 mg curcumin, p=0.007, mixed ANOVA) was “statistically significant difference”, the “inhibition of the number of tumors per mouse” value [7] was 98% and the “pNFκB or Akt/mTOR” value [8] was “no decrease”. For the same compound, the “FGF-2 expression in HNSCC cells” value ([9]; p<0.001) was “downregulation; also recorded: significant inhibition”, the “AKT/mTOR pathway in HNSCC cell lines” value ([9]; panel of nine HNSCC cell lines) was “inhibition” and the “MMP-9 in HNSCC cell lines” value ([9]; panel of nine HNSCC cell lines) was “downregulation”.
